Test results taken from the NIST ThermoML archive (doi:10.1016/j.jct.2016.05.015).
± gives the expanded uncertainty stated by the source.

Assay: xn = mol fraction of the nth substance listed
Settings: 100 kPa, Liquid; for viscosity: Capillary tube (Ostwald / Ubbelohde) method; for speed of sound: Frequency=2 MHz, Linear variable-path acoustic interferometer; for mass density: Vibrating tube method

SMILES: Nc1cccc(Cl)c1 [3-chlorobenzenamine] + O=[N+]([O-])c1ccccc1
- viscosity (303.15 K, x1 = 0.0812): 1.938 ± 0.1 mPa·s
- viscosity (303.15 K, x1 = 0.1725): 2.253 ± 0.1 mPa·s
- viscosity (303.15 K, x1 = 0.2623): 2.537 ± 0.1 mPa·s
- viscosity (303.15 K, x1 = 0.3725): 2.863 ± 0.1 mPa·s
- viscosity (303.15 K, x1 = 0.4854): 3.179 ± 0.1 mPa·s
- viscosity (303.15 K, x1 = 0.5896): 3.456 ± 0.1 mPa·s
- viscosity (303.15 K, x1 = 0.6785): 3.679 ± 0.1 mPa·s
- viscosity (303.15 K, x1 = 0.7825): 3.915 ± 0.1 mPa·s
- viscosity (303.15 K, x1 = 0.8905): 4.117 ± 0.1 mPa·s
- viscosity (303.15 K, x1 = 1): 4.255 ± 0.1 mPa·s
- speed of sound (303.15 K, x1 = 0.0812): 1445 ± 8.8 m/s
- speed of sound (303.15 K, x1 = 0.1725): 1452.6 ± 8.9 m/s
- speed of sound (303.15 K, x1 = 0.2623): 1460 ± 8.9 m/s
- speed of sound (303.15 K, x1 = 0.3725): 1468.9 ± 9 m/s
- speed of sound (303.15 K, x1 = 0.4854): 1478 ± 9 m/s
- speed of sound (303.15 K, x1 = 0.5896): 1486.4 ± 9.1 m/s
- speed of sound (303.15 K, x1 = 0.6785): 1493.5 ± 9.1 m/s
- speed of sound (303.15 K, x1 = 0.7825): 1501.6 ± 9.2 m/s
- speed of sound (303.15 K, x1 = 0.8905): 1509.8 ± 9.2 m/s
- speed of sound (303.15 K, x1 = 1): 1517.5 ± 9.3 m/s
- mass density (303.15 K, x1 = 0.0812): 1194.97 ± 20 kg/m3
- mass density (303.15 K, x1 = 0.1725): 1196.57 ± 20 kg/m3
- mass density (303.15 K, x1 = 0.2623): 1198.01 ± 20 kg/m3
- mass density (303.15 K, x1 = 0.3725): 1199.59 ± 20 kg/m3
- mass density (303.15 K, x1 = 0.4854): 1201 ± 20 kg/m3
- mass density (303.15 K, x1 = 0.5896): 1202.12 ± 20 kg/m3
- mass density (303.15 K, x1 = 0.6785): 1202.96 ± 20 kg/m3
- mass density (303.15 K, x1 = 0.7825): 1203.81 ± 20 kg/m3
- mass density (303.15 K, x1 = 0.8905): 1204.59 ± 20 kg/m3
- mass density (303.15 K, x1 = 1): 1205.32 ± 20 kg/m3
- viscosity (308.15 K, x1 = 0.0812): 1.787 ± 0.1 mPa·s
- viscosity (308.15 K, x1 = 0.1725): 2.079 ± 0.1 mPa·s
- viscosity (308.15 K, x1 = 0.2623): 2.34 ± 0.1 mPa·s
- viscosity (308.15 K, x1 = 0.3725): 2.637 ± 0.1 mPa·s
- viscosity (308.15 K, x1 = 0.4854): 2.922 ± 0.1 mPa·s
- viscosity (308.15 K, x1 = 0.5896): 3.168 ± 0.1 mPa·s
- viscosity (308.15 K, x1 = 0.6785): 3.362 ± 0.1 mPa·s
- viscosity (308.15 K, x1 = 0.7825): 3.565 ± 0.1 mPa·s
- viscosity (308.15 K, x1 = 0.8905): 3.734 ± 0.1 mPa·s
- viscosity (308.15 K, x1 = 1): 3.842 ± 0.1 mPa·s
- speed of sound (308.15 K, x1 = 0.0812): 1427.2 ± 8.7 m/s
- speed of sound (308.15 K, x1 = 0.1725): 1435 ± 8.8 m/s
- speed of sound (308.15 K, x1 = 0.2623): 1442.5 ± 8.8 m/s
- speed of sound (308.15 K, x1 = 0.3725): 1451.6 ± 8.9 m/s
- speed of sound (308.15 K, x1 = 0.4854): 1460.9 ± 8.9 m/s
- speed of sound (308.15 K, x1 = 0.5896): 1469.4 ± 9 m/s
- speed of sound (308.15 K, x1 = 0.6785): 1476.7 ± 9 m/s
- speed of sound (308.15 K, x1 = 0.7825): 1485 ± 9.1 m/s
- speed of sound (308.15 K, x1 = 0.8905): 1493.4 ± 9.1 m/s
- speed of sound (308.15 K, x1 = 1): 1501.2 ± 9.2 m/s
- mass density (308.15 K, x1 = 0.0812): 1189.92 ± 20 kg/m3
- mass density (308.15 K, x1 = 0.1725): 1191.59 ± 20 kg/m3
- mass density (308.15 K, x1 = 0.2623): 1193.07 ± 20 kg/m3
- mass density (308.15 K, x1 = 0.3725): 1194.69 ± 20 kg/m3
- mass density (308.15 K, x1 = 0.4854): 1196.16 ± 20 kg/m3
- mass density (308.15 K, x1 = 0.5896): 1197.35 ± 20 kg/m3
- mass density (308.15 K, x1 = 0.6785): 1198.25 ± 20 kg/m3
- mass density (308.15 K, x1 = 0.7825): 1199.18 ± 20 kg/m3
- mass density (308.15 K, x1 = 0.8905): 1200.03 ± 20 kg/m3
- mass density (308.15 K, x1 = 1): 1200.75 ± 20 kg/m3
- viscosity (313.15 K, x1 = 0.0812): 1.666 ± 0.1 mPa·s
- viscosity (313.15 K, x1 = 0.1725): 1.935 ± 0.1 mPa·s
- viscosity (313.15 K, x1 = 0.2623): 2.167 ± 0.1 mPa·s
- viscosity (313.15 K, x1 = 0.3725): 2.427 ± 0.1 mPa·s
- viscosity (313.15 K, x1 = 0.4854): 2.674 ± 0.1 mPa·s
- viscosity (313.15 K, x1 = 0.5896): 2.889 ± 0.1 mPa·s
- viscosity (313.15 K, x1 = 0.6785): 3.059 ± 0.1 mPa·s
- viscosity (313.15 K, x1 = 0.7825): 3.234 ± 0.1 mPa·s
- viscosity (313.15 K, x1 = 0.8905): 3.369 ± 0.1 mPa·s
- viscosity (313.15 K, x1 = 1): 3.43 ± 0.1 mPa·s
- speed of sound (313.15 K, x1 = 0.0812): 1409.1 ± 8.6 m/s
- speed of sound (313.15 K, x1 = 0.1725): 1416.6 ± 8.7 m/s
- speed of sound (313.15 K, x1 = 0.2623): 1423.8 ± 8.7 m/s
- speed of sound (313.15 K, x1 = 0.3725): 1432.6 ± 8.7 m/s
- speed of sound (313.15 K, x1 = 0.4854): 1441.5 ± 8.8 m/s
- speed of sound (313.15 K, x1 = 0.5896): 1449.8 ± 8.9 m/s
- speed of sound (313.15 K, x1 = 0.6785): 1456.8 ± 8.9 m/s
- speed of sound (313.15 K, x1 = 0.7825): 1465 ± 8.9 m/s
- speed of sound (313.15 K, x1 = 0.8905): 1473 ± 9 m/s
- speed of sound (313.15 K, x1 = 1): 1480.3 ± 9 m/s
- mass density (313.15 K, x1 = 0.0812): 1185.37 ± 20 kg/m3
- mass density (313.15 K, x1 = 0.1725): 1187.04 ± 20 kg/m3
- mass density (313.15 K, x1 = 0.2623): 1188.49 ± 20 kg/m3
- mass density (313.15 K, x1 = 0.3725): 1190.08 ± 20 kg/m3
- mass density (313.15 K, x1 = 0.4854): 1191.52 ± 20 kg/m3
- mass density (313.15 K, x1 = 0.5896): 1192.7 ± 20 kg/m3
- mass density (313.15 K, x1 = 0.6785): 1193.61 ± 20 kg/m3
- mass density (313.15 K, x1 = 0.7825): 1194.55 ± 20 kg/m3
- mass density (313.15 K, x1 = 0.8905): 1195.37 ± 20 kg/m3
- mass density (313.15 K, x1 = 1): 1196.02 ± 20 kg/m3
- viscosity (318.15 K, x1 = 0.0812): 1.542 ± 0.1 mPa·s
- viscosity (318.15 K, x1 = 0.1725): 1.787 ± 0.1 mPa·s
- viscosity (318.15 K, x1 = 0.2623): 1.992 ± 0.1 mPa·s
- viscosity (318.15 K, x1 = 0.3725): 2.218 ± 0.1 mPa·s
- viscosity (318.15 K, x1 = 0.4854): 2.43 ± 0.1 mPa·s
- viscosity (318.15 K, x1 = 0.5896): 2.615 ± 0.1 mPa·s
- viscosity (318.15 K, x1 = 0.6785): 2.755 ± 0.1 mPa·s
- viscosity (318.15 K, x1 = 0.7825): 2.902 ± 0.1 mPa·s
- viscosity (318.15 K, x1 = 0.8905): 3.004 ± 0.1 mPa·s
- viscosity (318.15 K, x1 = 1): 3.022 ± 0.1 mPa·s
- speed of sound (318.15 K, x1 = 0.0812): 1392.1 ± 8.5 m/s
- speed of sound (318.15 K, x1 = 0.1725): 1399.7 ± 8.5 m/s
- speed of sound (318.15 K, x1 = 0.2623): 1407 ± 8.6 m/s
- speed of sound (318.15 K, x1 = 0.3725): 1415.8 ± 8.6 m/s
- speed of sound (318.15 K, x1 = 0.4854): 1424.9 ± 8.7 m/s
- speed of sound (318.15 K, x1 = 0.5896): 1433.4 ± 8.7 m/s
- speed of sound (318.15 K, x1 = 0.6785): 1440.7 ± 8.8 m/s
- speed of sound (318.15 K, x1 = 0.7825): 1449.1 ± 8.8 m/s
- speed of sound (318.15 K, x1 = 0.8905): 1457.3 ± 8.9 m/s
- speed of sound (318.15 K, x1 = 1): 1464.8 ± 8.9 m/s
- mass density (318.15 K, x1 = 0.0812): 1179.19 ± 20 kg/m3
- mass density (318.15 K, x1 = 0.1725): 1181 ± 20 kg/m3
- mass density (318.15 K, x1 = 0.2623): 1182.58 ± 20 kg/m3
- mass density (318.15 K, x1 = 0.3725): 1184.35 ± 20 kg/m3
- mass density (318.15 K, x1 = 0.4854): 1185.97 ± 20 kg/m3
- mass density (318.15 K, x1 = 0.5896): 1187.32 ± 20 kg/m3
- mass density (318.15 K, x1 = 0.6785): 1188.37 ± 20 kg/m3
- mass density (318.15 K, x1 = 0.7825): 1189.5 ± 20 kg/m3
- mass density (318.15 K, x1 = 0.8905): 1190.49 ± 20 kg/m3
- mass density (318.15 K, x1 = 1): 1191.25 ± 20 kg/m3
